What is called DC50 is the concentration giving 50% degradation. A high value points to degradation only at high concentration. The inhibition is the drop in the measured response relative to a control, in per cent. A lower inhibition goes with little suppression.

Here are results for 19 molecules from patent US20260265238A1, “COMPOUNDS AND PHARMACEUTICAL COMPOSITIONS THAT DEGRADE SWI/SNF-RELATED MATRIX-ASSOCIATED ACTIN-DEPENDENT REGULATOR OF CHROMATIN SUBFAMILY A” (Plexium, Inc., priority 2023, published 2026).

For assay [1], the target named is T1, SMARCA2-HiBiT HeLa cells (protein which is expressed from the SMARCA2 gene) (Homo sapiens, UniProt P51531).
T1 construct: protein which is expressed from the SMARCA2 and SMARCA4 genes; host or cells: HeLa (SMARCA2-HiBiT engineered line)
T1 sequence (P51531 whole entry): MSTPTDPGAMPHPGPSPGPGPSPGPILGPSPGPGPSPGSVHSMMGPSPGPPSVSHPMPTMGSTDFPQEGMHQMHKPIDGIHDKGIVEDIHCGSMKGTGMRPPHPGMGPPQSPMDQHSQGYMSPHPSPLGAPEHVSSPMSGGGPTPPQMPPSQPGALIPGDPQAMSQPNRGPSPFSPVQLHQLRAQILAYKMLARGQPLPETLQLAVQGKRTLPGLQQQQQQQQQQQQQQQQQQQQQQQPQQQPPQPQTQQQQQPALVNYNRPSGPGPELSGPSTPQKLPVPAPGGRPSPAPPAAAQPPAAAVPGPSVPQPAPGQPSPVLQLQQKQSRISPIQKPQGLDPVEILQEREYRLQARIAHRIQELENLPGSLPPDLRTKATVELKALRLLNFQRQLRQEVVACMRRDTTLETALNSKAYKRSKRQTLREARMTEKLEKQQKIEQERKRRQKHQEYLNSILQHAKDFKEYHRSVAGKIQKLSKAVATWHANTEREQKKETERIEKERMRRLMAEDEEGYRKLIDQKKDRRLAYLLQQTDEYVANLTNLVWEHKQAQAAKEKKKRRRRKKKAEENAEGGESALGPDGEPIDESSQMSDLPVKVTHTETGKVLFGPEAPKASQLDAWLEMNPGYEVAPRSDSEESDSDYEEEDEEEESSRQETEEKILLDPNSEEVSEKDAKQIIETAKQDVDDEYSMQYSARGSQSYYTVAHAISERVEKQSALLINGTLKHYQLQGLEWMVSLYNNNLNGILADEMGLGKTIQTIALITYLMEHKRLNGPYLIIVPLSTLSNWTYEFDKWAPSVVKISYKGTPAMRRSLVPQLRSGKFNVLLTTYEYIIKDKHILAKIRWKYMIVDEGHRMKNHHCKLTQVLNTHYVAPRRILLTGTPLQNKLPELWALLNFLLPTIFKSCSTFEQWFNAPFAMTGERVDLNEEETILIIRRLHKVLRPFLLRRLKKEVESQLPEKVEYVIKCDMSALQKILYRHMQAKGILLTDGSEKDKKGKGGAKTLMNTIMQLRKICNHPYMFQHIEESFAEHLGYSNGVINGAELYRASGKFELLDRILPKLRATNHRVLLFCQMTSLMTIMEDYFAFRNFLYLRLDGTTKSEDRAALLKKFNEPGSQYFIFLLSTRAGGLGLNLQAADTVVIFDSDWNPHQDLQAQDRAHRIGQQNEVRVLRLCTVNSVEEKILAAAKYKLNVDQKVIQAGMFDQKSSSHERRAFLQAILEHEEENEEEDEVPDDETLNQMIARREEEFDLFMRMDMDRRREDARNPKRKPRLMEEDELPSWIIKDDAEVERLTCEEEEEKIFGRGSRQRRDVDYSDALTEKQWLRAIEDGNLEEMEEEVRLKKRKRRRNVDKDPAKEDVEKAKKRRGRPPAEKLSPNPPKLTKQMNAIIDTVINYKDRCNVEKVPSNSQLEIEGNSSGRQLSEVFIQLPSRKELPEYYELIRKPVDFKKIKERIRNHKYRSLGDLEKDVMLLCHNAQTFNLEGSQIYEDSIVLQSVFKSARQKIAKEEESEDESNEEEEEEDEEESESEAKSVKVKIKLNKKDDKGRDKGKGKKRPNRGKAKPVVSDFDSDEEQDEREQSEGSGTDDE
Kind of assay: SMARCA2 degradation assay (HiBiT-fusion HeLa cell line, 24 h, luminescence). The assay is classed as cell-based. In outline:
(§1)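 SMARCA2- or SMARCA4-HiBiT HeLa cells seeded overnight at 37° C, then given compound as a 10-point dilution (typically 10 μM to 300 pM) for 24 h at 37° C. Protein level read by HiBiT lytic detection luminescence; DC50 from dose-response curves; degradation also scored at 1 μM.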
(With HiBiT, luminescence reflects the tagged protein that the partner subunit can reach.)

Assay [2] has as its target T2, SMARCA4-HiBiT HeLa cells (protein which is expressed from the SMARCA4 gene) (Homo sapiens, UniProt P51532).
T2 construct: protein which is expressed from the SMARCA2 and SMARCA4 genes; host or cells: HeLa (SMARCA4-HiBiT engineered line)
Description: SMARCA4 degradation assay (HiBiT-fusion HeLa cell line, 24 h, luminescence). The assay is classed as cell-based. In a few lines:
as §1

T2 sequence (P51532 whole entry): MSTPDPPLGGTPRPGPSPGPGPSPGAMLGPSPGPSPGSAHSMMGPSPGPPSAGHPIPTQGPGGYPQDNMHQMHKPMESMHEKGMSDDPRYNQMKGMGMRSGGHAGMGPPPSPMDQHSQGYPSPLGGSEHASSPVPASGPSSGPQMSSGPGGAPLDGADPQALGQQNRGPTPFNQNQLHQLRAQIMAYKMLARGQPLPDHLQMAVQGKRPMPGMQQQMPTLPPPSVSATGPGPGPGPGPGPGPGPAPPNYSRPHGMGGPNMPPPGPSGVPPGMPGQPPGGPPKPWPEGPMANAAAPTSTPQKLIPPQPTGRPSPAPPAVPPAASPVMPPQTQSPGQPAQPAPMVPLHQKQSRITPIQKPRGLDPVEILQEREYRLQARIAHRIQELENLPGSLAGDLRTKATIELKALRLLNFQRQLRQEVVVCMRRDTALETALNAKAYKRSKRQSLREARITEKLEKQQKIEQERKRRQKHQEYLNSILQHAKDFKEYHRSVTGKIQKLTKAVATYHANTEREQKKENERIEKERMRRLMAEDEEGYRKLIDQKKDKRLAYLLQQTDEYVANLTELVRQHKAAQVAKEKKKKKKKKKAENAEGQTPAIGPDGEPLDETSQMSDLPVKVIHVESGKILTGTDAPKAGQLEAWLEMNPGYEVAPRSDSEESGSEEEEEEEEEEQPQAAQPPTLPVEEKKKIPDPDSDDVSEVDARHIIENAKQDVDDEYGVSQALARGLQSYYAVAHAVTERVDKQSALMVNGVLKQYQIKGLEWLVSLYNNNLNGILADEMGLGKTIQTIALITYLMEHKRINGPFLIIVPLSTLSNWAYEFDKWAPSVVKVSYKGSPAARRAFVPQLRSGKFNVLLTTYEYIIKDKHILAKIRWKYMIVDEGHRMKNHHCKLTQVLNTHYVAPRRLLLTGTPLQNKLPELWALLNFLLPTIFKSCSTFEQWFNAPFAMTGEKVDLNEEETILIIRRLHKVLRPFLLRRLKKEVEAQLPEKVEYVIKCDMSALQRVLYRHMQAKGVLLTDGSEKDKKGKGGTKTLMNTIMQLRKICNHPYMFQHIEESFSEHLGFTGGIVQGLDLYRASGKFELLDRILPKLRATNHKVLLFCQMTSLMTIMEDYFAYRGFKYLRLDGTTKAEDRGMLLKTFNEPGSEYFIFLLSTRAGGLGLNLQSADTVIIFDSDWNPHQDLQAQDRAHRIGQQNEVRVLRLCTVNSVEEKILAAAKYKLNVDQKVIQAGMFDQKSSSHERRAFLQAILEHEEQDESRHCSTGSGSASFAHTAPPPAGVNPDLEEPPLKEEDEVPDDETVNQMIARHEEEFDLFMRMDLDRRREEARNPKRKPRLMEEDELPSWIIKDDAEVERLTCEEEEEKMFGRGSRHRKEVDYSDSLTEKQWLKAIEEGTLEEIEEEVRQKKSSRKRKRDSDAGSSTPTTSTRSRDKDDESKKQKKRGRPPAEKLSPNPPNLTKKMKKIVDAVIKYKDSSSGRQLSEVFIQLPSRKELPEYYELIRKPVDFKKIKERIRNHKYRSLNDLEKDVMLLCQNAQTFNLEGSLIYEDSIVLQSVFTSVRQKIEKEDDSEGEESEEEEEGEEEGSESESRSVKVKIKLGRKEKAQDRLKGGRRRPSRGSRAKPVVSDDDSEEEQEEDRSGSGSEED

Turning to `Nc1nnc(-c2ccccc2O)cc1N1CCCN(c2ccnc(C#CCN3CCCC(O)C3)n2)CC1` (stereo not shown) [Compound P-361, 1-[3-(4-{4-[3-amino-6-(o-hydroxyphenyl)-4-pyridazinyl]-1,4-diazepan-1-yl}-2-pyrimidinyl)-2-propynyl]-3-piperidinol], the 50% degradation concentration (DC50) in assay [1] and in assay [2] was 0.5 to 5 µM throughout. Besides, in assay [1] (@ 1 μM), the “SMARCA2 % Degradation @ 1 μM” value is reported as “++ (++=30-70%)”. The molecule further gave an inhibition at 1 µM in assay [2] (@ 1 μM) below 30%.
In the case of `CC(C)(O)C#Cc1nccc(N2CCCN(c3cc(-c4ccccc4O)nnc3N)CC2)n1` [Compound P-341, 4-(4-{4-[3-amino-6-(0-hydroxyphenyl)-4-pyridaziny1]-1,4-diazepan-1-yl}-2-pyrimidinyl)-2-methyl-3-butyn-2-ol], the half-maximal degradation concentration (DC50) in assay [1] and in assay [2] was 0.5 to 5 µM in each case. The “SMARCA2 % Degradation @ 1 μM” value in assay [1] (@ 1 μM) is on record as “++ (++=30-70%)”. Moreover, the inhibition at 1 µM in assay [2] (@ 1 μM) was below 30%.
As for `C[C@@H]1CCN(c2cc(-c3ccccc3O)nnc2N)CCN1c1cc(C#CCn2ccnc2)ncc1Cl` [Compound P-408, 0-{5-[(R)-4-{5-chloro-2-[3-(1-imidazolyl)-1-propynyl]-4-pyridyl}-5-methyl-1,4-diazepan-1-yl]-6-amino-3-pyridazinyl} phenol], the DC50 in assay [1] and in assay [2] was 0.05 to 0.5 µM each time. Further, the “SMARCA2 % Degradation @ 1 μM” value in assay [1] (1 μM) is “++ (++=30-70%)”. Besides, the inhibition at 1 µM in assay [2] (1 μM) lay within 30 to 70%.
As to `Nc1nnc(-c2ccccc2O)cc1N1CCC2C1CCCN2c1ccnc(C#CCNC(=O)c2cc3ncccn3n2)n1` (stereo not shown) [Compound P-38, N-(3-(4-(1-(3-amino-6-(2-hydroxyphenyl)pyridazin-4-yl)octahydro-4H-pyrrolo[3,2-b]pyridin-4-yl)pyrimidin-2-yl)prop-2-yn-1-yl)pyrazolo[1,5-a]pyrimidine-2-carboxamide], the DC50 in assay [1] and in assay [2] was 0.5 to 5 µM throughout. In assay [1] (@ 1 μM), the “SMARCA2 % Degradation @ 1 μM” value is “+ (+=<30%)”. Further, the inhibition at 1 µM in assay [2] (@ 1 μM) is below 30%.
For `CC(C)(C)OC(=O)NCC#Cc1nccc(N2CCCN(c3cc(-c4ccccc4O)nnc3N)CC2)n1` [Compound P-121, tert-butyl (3-(4-(4-(3-amino-6-(2-hydroxyphenyl)pyridazin-4-yl)-1,4-diazepan-1-yl)pyrimidin-2-yl)prop-2-yn-1-yl)carbamate], the 50% degradation concentration (DC50) in assay [1] and in assay [2] was 0.05 to 0.5 µM each time. Moreover, the “SMARCA2 % Degradation @ 1 μM” value in assay [1] (@ 1 μM) is “+++ (+++=>70%)”. Moreover, in assay [2] (@ 1 μM), the inhibition at 1 µM was above 70%.
As to `Nc1nnc(-c2ccccc2O)cc1N1CCCN(c2ccnc(C#CCn3cccn3)n2)CC1` [Compound P-149, 2-(5-(4-(2-(3-(1H-pyrazol-1-yl)prop-1-yn-1-yl)pyrimidin-4-yl)-1,4-diazepan-1-yl)-6-aminopyridazin-3-yl)phenol], the 50% degradation concentration (DC50) in assay [1] and in assay [2] was 0.05 to 0.5 µM each time. In assay [2] (@ 1 μM), this molecule yielded an inhibition at 1 µM of 30 to 70%.
Regarding `C[C@@H]1CCN(c2cc(-c3ccccc3O)nnc2N)CCN1c1ccnc(C#CCn2cncn2)c1C#N` [Compound P-405, 4-{(R)-4-[3-amino-6-(0-hydroxyphenyl)-4-pyridaziny1]-7-methyl-1,4-diazepan-1-yl}-2-[3-(1H-1,2,4-triazol-1-yl)-1-propynyl]nicotinonitrile], the half-maximal degradation concentration (DC50) in assay [1] is 0.5 to 5 µM; in assay [2] it was above 5 µM.
Turning to `Nc1nnc(-c2ccccc2O)cc1N1CCC2C1CCN2c1ccnc(C#CCNC(=O)c2cc3ncccn3n2)n1` (stereo not shown) [Compound P-77, N-(3-(4-(4-(3-amino-6-(2-hydroxyphenyl)pyridazin-4-yl)hexahydropyrrolo[3,2-b]pyrrol-1(2H)-yl)pyrimidin-2-yl)prop-2-yn-1-yl)pyrazolo[1,5-a]pyrimidine-2-carboxamide], the results for the DC50 in assay [1] and in assay [2] were 0.5 to 5 µM and 0.05 to 0.5 µM, respectively. Also, the “SMARCA2 % Degradation @ 1 μM” value in assay [1] (@ 1 μM) is reported as “+ (+=<30%)”. Moreover, the inhibition at 1 µM in assay [2] (@ 1 μM) fell in the range of 30 to 70%.
The matching figures for `Nc1nnc(-c2ccccc2O)cc1N1CCN(c2ccnc(C#CCNC(=O)c3cc4ncccn4n3)n2)CC(F)C1` (stereo not shown) [Compound P-44, N-(3-(4-(4-(3-amino-6-(2-hydroxyphenyl)pyridazin-4-yl)-6-fluoro-1,4-diazepan-1-yl)pyrimidin-2-yl)prop-2-yn-1-yl)pyrazolo[1,5-a]pyrimidine-2-carboxamide]: 0.5 to 5 µM, 0.5 to 5 µM, “++ (++=30-70%)” and 30 to 70%.
`Nc1nnc(-c2ccccc2O)cc1N1CCCN(c2ccnc(C#CCNC3CCOCC3)n2)CC1` [Compound P-300, 0-[6-amino-5-(4-{2-[3-(tetrahydro-2H-pyran-4-ylamino)-1-propynyl]-4-pyrimidinyl}-1,4-diazepan-1-yl)-3-pyridazinyl]phenol]: the DC50 in assay [1] and in assay [2] was 0.05 to 0.5 µM throughout. Besides, in assay [1] (@ 1 μM), the “SMARCA2 % Degradation @ 1 μM” value is recorded as “+++ (+++=>70%)”. Moreover, in assay [2] (@ 1 μM), the inhibition at 1 µM fell in the range of 30 to 70%.
In the case of `Nc1nnc(-c2ccccc2O)cc1OC1CC2CN(c3ccnc(C#CCN4CCC4)n3)CC2C1` (stereo not shown) [Compound P-197, o-[6-amino-5-(3-(2-[3-(1-azetidinyl)-1-propynyl]-4-pyrimidinyl}-3-azabicyclo[3.3.0]oct-7-yloxy)-3-pyridazinyl]phenol], the 50% degradation concentration (DC50) fell in the range of 0.05 to 0.5 µM in assay [1] and 0.5 to 5 µM in assay [2]. In assay [1] (@ 1 μM), the “SMARCA2 % Degradation @ 1 μM” value is reported as “++ (++=30-70%)”. The molecule further gave an inhibition at 1 µM in assay [2] (@ 1 μM) of 30 to 70%.
The corresponding values for `C[C@@H]1CCN(c2cc(-c3ccccc3O)nnc2N)CCN1c1ccnc(C#CCN2CC3(CCC3(F)F)C2)n1` [Compound P-201, o-{5-[(R)-4-(2-{3-(5,5-difluoro-2-aza-2-spiro[3.3]hcptyl)-1-propynyl}-4-pyrimidinyl)-5-methyl-1,4-diazepan-1-yl]-6-amino-3-pyridazinyl}phenol] are 0.05 to 0.5 µM, 0.05 to 0.5 µM, “+++ (+++=>70%)” and 30 to 70%.
The matching figures for `Cn1nccc1OCC#Cc1nccc(N2CCCN(c3cc(-c4ccccc4O)nnc3N)CC2)n1` [Compound P-131, 2-(6-amino-5-(4-(2-(3-((1-methyl-1H-pyrazol-5-yl)oxy)prop-1-yn-1-yl)pyrimidin-4-yl)-1,4-diazepan-1-yl)pyridazin-3-yl)phenol]: 0.05 to 0.5 µM, 0.05 to 0.5 µM, “++ (++=30-70%)” and 30 to 70%.
On to `CC(C)(C)OC(=O)NCC#Cc1nccc(N2CC3=C(C2)CN(c2cc(-c4ccccc4O)nnc2N)C3)n1` [Compound P-259, 3-(4-{7-[3-amino-6-(o-hydroxyphenyl)-4-pyridaziny1]-3,7-diazabicyclo[3.3.0]oct-1(5)-en-3-y1}-2-pyrimidinyl)-2-propynylamino-tert-butylformylate], for which the half-maximal degradation concentration (DC50) in assay [1] and in assay [2] was below 0.05 µM throughout. Moreover, the “SMARCA2 % Degradation @ 1 μM” value in assay [1] (@ 1 μM) is “++ (++=30-70%)”. In assay [2] (@ 1 μM), this molecule displayed an inhibition at 1 µM of 30 to 70%.
On to `C[C@@H]1CCN(c2cc(-c3ccccc3O)nnc2N)CCN1c1ccnc(C=CCN(C)CC(F)F)n1` [Compound P-163, o-{5-[(R)-4-(2-{3-[(2,2-difluoroethyl)-N-methylamino]-1-propenyl}-4-pyrimidinyl)-5-methyl-1,4-diazepan-1-yl]-6-amino-3-pyridazinyl}phenol], for which the DC50 in assay [1] and in assay [2] was 0.05 to 0.5 µM in each case. The “SMARCA2 % Degradation @ 1 μM” value in assay [1] (@ 1 μM) is on record as “++ (++=30-70%)”. For the same molecule, the inhibition at 1 µM in assay [2] (@ 1 μM) was below 30%.
As for `Nc1nnc(-c2ccccc2O)cc1N1CCC2(CCCN(c3ccnc(C#CCNC(=O)c4cc5ncccn5n4)n3)C2)CC1` [Compound P-35, N-(3-(4-(9-(3-amino-6-(2-hydroxyphenyl)pyridazin-4-yl)-2,9-diazaspiro[5.5]undecan-2-yl)pyrimidin-2-yl)prop-2-yn-1-yl)pyrazolo[1,5-a]pyrimidine-2-carboxamide], the DC50 in assay [1] and in assay [2] was 0.05 to 0.5 µM in each case. Moreover, in assay [1] (@ 1 μM), the “SMARCA2 % Degradation @ 1 μM” value is “++ (++=30-70%)”. The molecule also gave an inhibition at 1 µM in assay [2] (@ 1 μM) above 70%.
Take `Nc1nnc(-c2ccccc2O)cc1N1CCCN(c2ccnc(/C=C/CNC(=O)c3cnc4ccccc4n3)n2)CC1` [Compound P-110, (E)-N-(3-(4-(4-(3-amino-6-(2-hydroxyphenyl)pyridazin-4-yl)-1,4-diazepan-1-yl)pyrimidin-2-yl)allyl)quinoxaline-2-carboxamide]: the 50% degradation concentration (DC50) in assay [1] and in assay [2] was 0.05 to 0.5 µM each time. Further, in assay [1] (@ 1 μM), the “SMARCA2 % Degradation @ 1 μM” value is reported as “+++ (+++=>70%)”. Moreover, the inhibition at 1 µM in assay [2] (@ 1 μM) was above 70%.
As to `Nc1nnc(-c2ccccc2O)cc1N1CCN(c2ccnc(C#CCNC(=O)c3cnn4cccc(F)c34)n2)CC1` [Compound P-117, N-(3-(4-(4-(3-amino-6-(2-hydroxyphenyl)pyridazin-4-yl)piperazin-1-yl)pyrimidin-2-yl)prop-2-yn-1-yl)-4-fluoropyrazolo[1,5-a]pyridine-3-carboxamide], the DC50 in assay [1] and in assay [2] was 0.05 to 0.5 µM throughout. In assay [1] (@ 1 μM), the “SMARCA2 % Degradation @ 1 μM” value was “++ (++=30-70%)”. The same molecule yielded an inhibition at 1 µM in assay [2] (@ 1 μM) of 30 to 70%.
With `CC1CN(c2ccnc(C#CCNC(=O)c3cc4ncccn4n3)n2)CCCN1c1cc(-c2ccccc2O)nnc1N` (stereo not shown) [Compound P-29, N-(3-(4-(4-(3-amino-6-(2-hydroxyphenyl)pyridazin-4-yl)-3-methyl-1,4-diazepan-1-yl)pyrimidin-2-yl)prop-2-yn-1-yl)pyrazolo[1,5-a]pyrimidine-2-carboxamide], the 50% degradation concentration (DC50) in assay [1] and in assay [2] was 0.05 to 0.5 µM in each case. For the same molecule, the “SMARCA2 % Degradation @ 1 μM” value in assay [1] (@ 1 μM) is listed as “+++ (+++=>70%)”. Besides, the inhibition at 1 µM in assay [2] (@ 1 μM) is above 70%.
